We go through four compounds from patent US20130158070A1, “CONJUGATES OF POLYUNSATURATED FATTY ACIDS AND AMINE-CONTAINING COMPOUNDS AND USES THEREOF” (priority 2010, published 2013).

Test [1] relates to collagen induced arthritis. Briefly: Collagen induced arthritis (CIA), arthritis score, paw thickness, body weight. The format is in vivo, DBA/1J mice. The conditions noted are these: 50 mg/kg IP; for day from which arthritis score (AS) increases: 3 times a week, 12 administrations; for CIA development: overall conclusion; for arthritis thickness index (ATI) increase: from day 0 to day 70, groups 1M DHA-Tau, 2M DHA, 4M Ibuprofen. How it is done: In a different study, 34 male 8-10 weeks old DBA/1J mice were used. Animals were fed ad libitum a commercial rodent diet (Teklad Certified Global 18% Protein Diet cat #: 106S8216). Animals had free access to acidified drinking water (pH between 2.5 and 3.0) obtained from the municipality supply.
The effect of MWL-002 (conjugate of DHA and taurine) was tested and compared to that of Ibuprofen. Cremophore EL was used as a vehicle.
On day 0, each mouse was anesthetized by inhalation of 3% isofluorane and injected intradermally at the base of the tail with 0.1 ml of emulsion containing 100 μg collagen, using a 1-ml glass syringe with a 26-guade needle. Booster injection was performed at day 15 to the same injection site.
The tested materials were administered 3 times a week, via IP for a total of 12 administrations starting on day 1.
Observations for clinical score were performed twice weekly until study termination.
The severity of arthritis was scored based on the level of inflammation in each of the four paws and recorded as one of five grades according to the following:
Hind paw thickness (edema) was measured by digital caliper once a week until Day 14 and thereafter twice weekly and prior to study termination. Two cross sectional areas were marked, one on the paw and the other at the ankle (tarsal joint). Two measurements were made on each section, perpendicular to each other. The results obtained were calculated as the average areas of both hind limbs per animal.
Body weight was measured prior to dosing, during the study twice a week and prior to study termination.

The test system of a further test is DNBS-induced colitis. Briefly: DNBS-induced experimental colitis in mice, oral administration. The format is in vivo. Particulars: day four after DNBS, MWL001 50 mg/kg oral daily. As to the method:
In this study, the effect of MWL001 on pro-inflammatory mediators in DNBS-induced experimental colitis in mice was evaluated. In particular it was observed that there was no expression of TNF-α, CD4, TGF-13, CD25 in the colon tissue from sham-treated mice. MWL001 and DEX were administered orally and daily starting at six hours after the DNBS challenge.
Colitis was induced with a very low dose of 2,4-dinitrobenzene sulfonic acid (DNBS) (4 mg per mouse) by using a modification of the method first described in mice. […] Mice were anesthetized by Enflurane. DNBS (4 mg in 100 μl of 50% ethanol) was injected into the rectum through a catheter inserted 4.5 cm proximally to the anus. The carrier alone (100 μl of 50% ethanol) was administered in control experiments. Thereafter, the animals were kept for 15 minutes in a Trendelenburg position to avoid reflux. […] On Day four, the animals were weighed and anaesthetized with chloral hydrate, and their abdomen was opened by a midline incision. The colon was removed, freed from surrounding tissues, opened along the antimesenteric border and processed for histology.
TNF-α and IL-6 levels were evaluated and colon tissues collected at four days after DNBS administration. Briefly, portions of terminal colon were homogenized as previously described in phosphate-buffered saline (PBS, ICN Biomedicals, Milan, Italy) containing two mmol/L of phenyl-methyl sulfonyl fluoride (PMSF, Sigma Chemical Co.). The assay was carried out using a colorimetric, commercial kit (R&D system Milan, Italy) according to the manufacturer instructions. All cytokines determinations were performed in duplicate serial dilutions.
At four days after DNBS administration, colon tissues were fixed in 10% (w/v) PBS-buffered formaldehyde and 7 μm sections were prepared from paraffin embedded tissues. After deparaffinization, endogenous peroxidase was quenched with 0.3% (v/v) hydrogen peroxide in 60% (v/v) methanol for 30 min. The sections were permeabilized with 0.1% (w/v) Triton X-100 in PBS for 20 min. Non-specific adsorption was minimized by incubating the section in 2% (v/v) normal goat serum in PBS for 20 min. Endogenous biotin or avidin binding sites were blocked by sequential incubation for 15 min with biotin and avidin (Vector Laboratories, Burlingame, Calif.), respectively. Sections were incubated overnight with: 1) purified polyclonal antibody directed towards CD4 (Santa Cruz Biotechnology, 1:500 in PBS, v/v) or 2) with purified anti-CD25 (Santa Cruz Biotecnology 1:500 in PBS, w/v) or 3) with anti- TNF-α polyclonal antibody (Santa Cruz Biotechnology, N-19:sc-1350, 1:500 in PBS, v/v) or 4) with anti-TGF-β polyclonal antibody (Santa Cruz, 1:500 in PBS, v/v).
Sections were washed with PBS, and incubated with a secondary antibody. Specific labelling was detected with a biotin-conjugated goat anti-rabbit IgG and avidin-biotin peroxidase complex (Vector Laboratories, Burlingame, Calif.).

Test [2] relates to oxazolone-induced allergic dermatitis. Briefly: Murine oxazolone-induced allergic dermatitis. The conditions noted are these: hematoxylin and eosin stained sections. Format: in vivo, mice. From the text: An allergic form of contact dermatitis can be induced in mice by repeated epicutaneous application of the chemical sensitizer oxazolone. This leads to local augmented thickness and weight increase of the skin area where the rechallenge was applied; from the histological point of view, oxazolone-induced dermatitis is characterized by severe mononuclear cell infiltration of the dermis with in situ production of the type 1 proinflammatory cytokines TNF-alpha, IL-1alpha and IFN-gamma. These well-defined mechanistic pathways of inflammatory skin damage make oxazolone-dermatitis a useful in vivo tool for pathogenic studies and a pharmacodynamic parameter to screen drugs of potential utility in counteracting type 1 cytokine dependent cutaneous immunoinflammatory responses such as those found in some forms of bullous disorders, cutaneous vasculitis and psoriasis.
The efficacy of MWL001 in the treatment of Murine oxazolone-induced allergic dermatitis was evaluated. MWL001 and DEX were administered one hour after the second challenge with oxazolone.
The mice were sensitized on day 0 by a single application of 10 ∞l of 2% oxazolone (Sigma Chimica, Milan, Italy) in ethanol to the inner and outer surface of the left ear. The disease was elicited by local rechallenge on day 7 with 15% oxazolone. The right ear was treated with the vehicle of oxazolone (acetone). Eighteen hours after […] the mice are sacrificed under ether anesthesia and both the right and left ears were excised.
Inflammation was assessed as the percentage increase in ear thickness and/or ear weight in the treated left ear vs. the vehicle-treated right ear. Ear thickness was measured with a digital calliper. The extent of the inflammation was quantified as follows: ear swelling (%)=100×(a−b)/b, where a is thickness/weight of the left (treated) ear and b is the thickness/weight of the right (untreated) ear.
Ear tissue samples were fixed with 4% formaldehyde in phosphate-buffered saline (PBS) and embedded in paraffin. Thereafter, 6-μm sections were deparaffinized with xylene, stained with hematoxylin-eosin and observed with a Zeiss microscope (Jena, Germany).

A further test concerns the target T1, COX-2 (Homo sapiens, UniProt P35354).
T1 sequence (P35354 18-604): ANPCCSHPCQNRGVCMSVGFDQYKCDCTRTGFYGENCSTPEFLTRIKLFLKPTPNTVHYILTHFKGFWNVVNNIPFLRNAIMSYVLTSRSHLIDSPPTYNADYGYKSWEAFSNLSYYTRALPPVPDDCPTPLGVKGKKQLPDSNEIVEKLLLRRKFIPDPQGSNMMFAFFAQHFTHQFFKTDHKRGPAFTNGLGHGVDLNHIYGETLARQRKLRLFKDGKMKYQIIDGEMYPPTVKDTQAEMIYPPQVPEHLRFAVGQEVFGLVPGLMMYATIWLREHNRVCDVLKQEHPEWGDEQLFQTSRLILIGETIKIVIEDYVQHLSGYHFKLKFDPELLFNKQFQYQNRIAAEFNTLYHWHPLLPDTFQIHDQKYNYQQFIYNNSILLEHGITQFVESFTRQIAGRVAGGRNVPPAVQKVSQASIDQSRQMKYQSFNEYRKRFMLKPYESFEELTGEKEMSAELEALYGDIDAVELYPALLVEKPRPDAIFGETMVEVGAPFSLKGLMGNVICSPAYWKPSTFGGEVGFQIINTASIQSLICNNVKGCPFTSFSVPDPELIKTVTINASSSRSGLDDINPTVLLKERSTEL
Briefly: COX-2 inhibition, enzyme immunoassay (EIA). Format: biochemical. The conditions noted are these: ratio of COX-1 IC50 to COX-2 IC50. As to the method:
Exemplary conjugates as described herein were tested in vitro for inhibition of COX-1 and COX-2, using an enzyme immunoassay (EIA), as follows.
Cyclooxygenase catalyzes the first step in the biosynthesis of arachidonic acid (AA) to PGH2. PGF2α, produced from PGH2 by reduction with stannous chloride, is measured by enzyme immunoassay (ACETM competitive EIA).
Stock solutions of test compounds were dissolved in a minimum volume of DMSO. Briefly, to a series of supplied reaction buffer solutions (960 μl, 0.1M Tris-HCl pH 8.0 containing 5 mM EDTA and 2 mM phenol) with either COX-1 or COX-2 (10 μl) enzyme in the presence of heme (10 μl) were added 10 μl of various concentrations of test drug solutions (0.01, 0.1, 1, 10, 50, and 100 μM in a final volume of 1 ml). These solutions were incubated for a period of 5 minutes at 37° C. after which 10 μL of AA (100 μM) solution were added and the COX reaction was stopped by the addition of 50 μl of 1M HCl after 2 minutes. PGF2α, produced from PGH2 by reduction with stannous chloride was measured by enzyme immunoassay.
This assay is based on the competition between PGs and a PG-acetylcholinesterase conjugate (PG tracer) for a limited amount of PG antiserum. The amount of PG tracer that is able to bind to the PG antiserum is inversely proportional to the concentration of PGs in the wells since the concentration of PG tracer is held constant while the concentration of PGs varies. The concentration of the test compound causing 50% inhibition (IC50, μM) was calculated from the concentration-inhibition response curve (duplicate determinations).

Regarding `CC/C=C\C/C=C\C/C=C\C/C=C\C/C=C\C/C=C\CCC(=O)O` [DHA, all-cis-4,7,10,13,16,19-docosahexaenoic acid], in test [1], the “day from which arthritis score (AS) increases” value is 40 days, the CIA development entry is “not substantially effective” and the “arthritis thickness index (ATI) increase” value turned out to be 180%.

Take `CC(C)Cc1ccc(C(C)C(=O)O)cc1` (centres unmarked) [Ibuprofen]: in test [1], the “day from which arthritis score (AS) increases” value is 40 days, the CIA development result is given as “not substantially effective” and the “arthritis thickness index (ATI) increase” value turned out to be 190%.

As to `C[C@@H]1C[C@H]2[C@@H]3CCC4=CC(=O)C=C[C@]4(C)[C@@]3(F)[C@@H](O)C[C@]2(C)[C@@]1(O)C(=O)CO` [DEX, dexamathasone, reference compound], in the test on DNBS-induced colitis (colorimetric kit), the IL-6 colon levels entry is recorded as “significant reduction” and the TNF-α colon levels result was “significant reduction”. Besides, in the test with DNBS-induced colitis (immunostaining), the “expression of CD4 in colon tissue” value was “significantly reduced”, the “expression of CD25 in colon tissue” value is listed as “significantly reduced”, the “expression of TGF-β in colon tissue” value was “significantly reduced” and the “expression of TNF-α in colon tissue” value is listed as “significantly reduced”. Further, the “histology: ear thickness and inflammatory cells in epidermis and dermis” value in test [2] is on record as “markedly reduced”.

With `CCCCCCCC/C=C\CCCCCCCC(=O)n1cc(CC(=O)O)c2cc(O)ccc21` [MWL-007, N-oleoyl-5-hydroxy-indol-3-yl-acetic acid], the “Ratio (COX ½)” value on COX-2 was 15.83.
